From US8383183B2, “Sweetness enhancers, sweetness enhanced sweetener compositions, methods for their formulation, and uses” (The Coca-Cola Company, priority 2007, dated 2013)
Values joined by “and” are separate entries in the source; they are usually repeats but may differ in a detail not shown here. Identical values can stand only once.

Legend:
[1] = Rate of dissolution in H2O at 25° C.; assay type: physicochemical
[2] = test system: sweetness intensity of 6% sucrose; assay: Sulfamate & 6% sucrose Sweetness Enhancement Test (sensory rating against 6-10% sucrose references); assay type: in vivo; parameters: key to Sweetness Intensity Rating (6-10), subject #1 / Sweetness Intensity Rating (6-10), subject #2 / Sweetness Intensity Rating (6-10), subject #3 / Sweetness Intensity Rating (6-10), subject #4 / Sweetness Intensity Rating (6-10), subject #5 / Average Intensity Rating: sweetness rated 6-10 relative to 6-10% sucrose references
Method: Sensory studies that were carried out on the N-substituted sulfamic acid salts included 1) preliminary sulfamate analogue Sweetness Detection Threshold (SDT) estimation, 2) refined Sweetness Detection Threshold (SDT) estimation, 3) N-substituted sulfamic acid salts mixed with 6% sucrose Sweetness Enhancement Test and 4) repeat of step 3. Reference samples were prepared at 6, 7, 8, 9 and 10% sucrose (w/v). […] Each of the ten samples was then individually rated for sweetness intensity on a scale of 6-10 relative to the 6-10% sucrose references.

sweet taste [3] = assay: Preliminary sulfamate analogue Sweetness Detection Threshold (SDT) estimation, sip-and-spit, one experienced subject; assay type: in vivo; conditions: for sweet taste exhibited: 15.6-1,000 ppm solutions in water, one subject
Method: Sensory studies that were carried out on the N-substituted sulfamic acid salts included 1) preliminary sulfamate analogue Sweetness Detection Threshold (SDT) estimation, 2) refined Sweetness Detection Threshold (SDT) estimation, 3) N-substituted sulfamic acid salts mixed with 6% sucrose Sweetness Enhancement Test and 4) repeat of step 3. A 1,000 ppm sulfamate analogue solution was prepared by dissolution of 20 mg sulfamate analogue in 20 mL purified water. An aliquot (10 mL) of this solution was diluted to 20 mL with water to obtain a 500 ppm solution. Additional 1:1 serial dilutions step were used to obtain 250, 125, 62.5, 31.2 and 15.6 ppm solutions. These solutions were then tasted in ascending order of concentration by one experienced subject by using a sip-and-spit protocol. The subject's estimated SDT was determined to be at the lowest concentration at which sweetness was definitely observed.

sweet taste [4] = assay: N-alkyl sulfamate SDT estimation, sip-and-spit, 5 experienced subjects; assay type: in vivo
Method: A 250 ppm solution of 4 was prepared by dissolution of 50 mg sulfamate in 200 mL purified water. An aliquot (100 mL) of this solution then was diluted to 200 mL with water to obtain a 125 ppm solution. Additional 1:1 serial dilution steps were used to prepare 62.5, 31.2 and 15.6 ppm solutions. These solutions then were tasted in ascending order of concentration by 5 experienced subjects by a sip-and-spit protocol.

[5] = 125 ppm in 6% sucrose, single test sample, listed as NS

C=C1C[C@@]23CC[C@H]4[C@@](C)(CCC[C@@]4(C)C(=O)O[C@@H]4O[C@H](CO)[C@@H](O)[C@H](O)[C@H]4O)[C@@H]2CC[C@]1(O[C@@H]1O[C@H](CO)[C@@H](O)[C@H](O[C@@H]2O[C@H](CO)[C@@H](O)[C@H](O)[C@H]2O)[C@H]1O[C@@H]1O[C@H](CO)[C@@H](O)[C@H](O)[C@H]1O)C3 [Form 2, rebaudioside A]
Rate of dissolution in H2O at 25° C. ([1]; in 5 minutes): Intermediate (<30%

sodium 1H-thiazolyl sulfamate [sulfamate 5]
sweetness intensity of a 6.0% sugar solution increased to the equivalent of ([2]; about 404 ppm in 6.0% sugar solution): about 6.9 % sugar solution
sweet taste of the sulfamate by itself (sweet taste [3]; no sugar): not sweet by itself

O=S(=O)([O-])NC1CC2CCC1C2.[Na+] (stereo not shown) [sulfamate 4, sodium bicycle[2.2.1]heptan-2-yl sulfamate]
Average Intensity Rating ([2]; 125 ppm in 6% sucrose, single test sample, mean of 5 subjects, listed as NS): 8.2 and 8.4 and 7.2 and 8.6
Sweetness Intensity Rating (6-10), subject #1 [2, 5]: 8 and 9 and 7
Sweetness Intensity Rating (6-10), subject #2 [2, 5]: 8 and 9 and 7 and 10
Sweetness Intensity Rating (6-10), subject #3 [2, 5]: 8 and 7
Sweetness Intensity Rating (6-10), subject #4 [2, 5]: 9 and 7
Sweetness Intensity Rating (6-10), subject #5 [2, 5]: 8 and 7
average sweetness intensity rating, with 6% Sucrose Test Average ([2]; 125 ppm in 6% sucrose, scale 6-10 relative to 6-10% sucrose references, mean of four test samples): 8.1
sweetness intensity of a 6.0% sugar solution increased to the equivalent of ([2]; about 125 ppm in 6.0% sugar solution): about 8.1 % sugar solution
sweet taste exhibited (sweet taste [3]): exhibit sweet taste
off-taste (sweet taste [3]; 1,000 ppm in water): no off-taste
taste (sweet taste [3]; 1,000 ppm in water): strong sweet taste
sweet taste of the sulfamate by itself (sweet taste [3]; no sugar): very faint sweet taste
taste (sweet taste [3]; ca. 62 ppm in water): weak sweet taste
Sweetness Detection Threshold (SDT) (sweet taste [4]; 5 subjects, in water): < 125 ppm
taste (sweet taste [4]; 15.6 ppm solution, all 5 subjects): absence of taste
taste (sweet taste [4]; 31.2 ppm solution, all 5 subjects): absence of taste
taste (sweet taste [4]; 62.5 ppm solution, 3 out of 5 subjects): very faint sweetness
sweetness, sugar equivalent (sweet taste [4]; 125 ppm solution, 4 out of 5 subjects): less than 1 % sugar equivalent
sweetness comparable to that of sucrose (sweet taste [4]; 250 ppm sample, all 5 subjects): ca. 2 % sucrose
equivalent sweetness intensity by itself (sweet taste [4]; about 62 ppm, by itself): < 1 % sugar solution

sodium 1H-1,3,5-triazolyl sulfamate [sulfamate 1]
sweetness intensity of a 6.0% sugar solution increased to the equivalent of ([2]; about 372 ppm in 6.0% sugar solution): about 7.1 % sugar solution
sweet taste of the sulfamate by itself (sweet taste [3]; no sugar): not sweet by itself

CC(C)(C)CCNS(=O)(=O)[O-].[Na+] [sulfamate 3A, sodium 1H-3,3-dimethyl butyl sulfamate]
sweetness intensity of a 6.0% sugar solution increased to the equivalent of ([2]; about 406 ppm in 6.0% sugar solution): about 7.0 % sugar solution
sweet taste of the sulfamate by itself (sweet taste [3]; no sugar): not sweet by itself

C=C1C[C@@]23CC[C@H]4[C@@](C)(CCC[C@@]4(C)C(=O)O[C@@H]4O[C@H](CO)[C@@H](O)[C@H](O)[C@H]4O)[C@@H]2CC[C@]1(O[C@@H]1O[C@H](CO)[C@@H](O)[C@H](O[C@@H]2O[C@H](CO)[C@@H](O)[C@H](O)[C@H]2O)[C@H]1O[C@@H]1O[C@H](CO)[C@@H](O)[C@H](O)[C@H]1O)C3 [Form 4, rebaudioside A]
Rate of dissolution in H2O at 25° C. ([1]; in 5 minutes): High (>35.0%

CC1CCCCC1NS(=O)(=O)[O-].[Na+] (stereo not shown) [sulfamate 2, sodium 1H-2-methyl cyclohexyl sulfamate]
sweetness intensity of a 6.0% sugar solution increased to the equivalent of ([2]; about 430 ppm in 6.0% sugar solution): about 7.3 % sugar solution
sweet taste exhibited (sweet taste [3]): exhibit sweet taste
off-taste (sweet taste [3]; 1,000 ppm in water): some bitterness off-taste problems
taste (sweet taste [3]; 1,000 ppm in water): slight sweet taste
sweet taste of the sulfamate by itself (sweet taste [3]; no sugar): not sweet by itself

C=C1C[C@@]23CC[C@H]4[C@@](C)(CCC[C@@]4(C)C(=O)O[C@@H]4O[C@H](CO)[C@@H](O)[C@H](O)[C@H]4O)[C@@H]2CC[C@]1(O[C@@H]1O[C@H](CO)[C@@H](O)[C@H](O[C@@H]2O[C@H](CO)[C@@H](O)[C@H](O)[C@H]2O)[C@H]1O[C@@H]1O[C@H](CO)[C@@H](O)[C@H](O)[C@H]1O)C3 [Form 3, rebaudioside A]
Rate of dissolution in H2O at 25° C. ([1]; in 5 minutes): High (>30%

C=C1C[C@@]23CC[C@H]4[C@@](C)(CCC[C@@]4(C)C(=O)O[C@@H]4O[C@H](CO)[C@@H](O)[C@H](O)[C@H]4O)[C@@H]2CC[C@]1(O[C@@H]1O[C@H](CO)[C@@H](O)[C@H](O[C@@H]2O[C@H](CO)[C@@H](O)[C@H](O)[C@H]2O)[C@H]1O[C@@H]1O[C@H](CO)[C@@H](O)[C@H](O)[C@H]1O)C3 [Form 1, rebaudioside A]
Rate of dissolution in H2O at 25° C. ([1]; in 60 minutes): Very low (<0.2%

CC(C)(C)CCNS(=O)(=O)[O-].[K+] [sulfamate 3B, potassium 1H-3,3-dimethyl butyl sulfamate]
sweetness intensity of a 6.0% sugar solution increased to the equivalent of ([2]; about 200 ppm in 6.0% sugar solution): about 7.0 % sugar solution
sweet taste of the sulfamate by itself (sweet taste [3]; in amounts up to 1000 ppm): not sweet by itself
